Structures can show the parent of a compound that is named as a salt. Where two headings read alike, the source gives them in different places.
Key:
quiescent TG1 GSCs = test system: quiescent TG1 GSCs
Experimental: (§1) Proliferating or quiescent TG1 GSCs were seeded (30 000 and 40 000 viable cells/well, respectively) into 96-well opaque bottom plates (Greiner) with the Biomek FX robot (Beckman Coulter). Each compound from the Prestwick Library was then added (final concentration: 50 μM; 1% DMSO). Each molecule was tested once. Negative control wells (12/96 per assay plate) contained cells treated with 1% DMSO (final concentration) and positive control wells (4/96 per assay plate) contained cells treated with the fungal toxin ophiobolin A (Sigma Aldrich) at 50 μM with 1% DMSO. […] Luminescence in each well was measured with the Victor3 plate reader (PerkinElmer).
(§2) Relative ATP levels in each well were determined by calculating the percentage of luminescent signal in the well with respect to the average signal measured in negative control wells.
(§3) Primary screen hits were further tested in duplicate, at two concentrations (50 and 5 μM) on proliferating and quiescent TG1 GSCs. Cell plating and treatment with compounds were as for the primary screen. Hit selection/confirmation criteria for quiescent cells were as described above.

proliferating TG1 GSCs = conditions: primary screen, 50 μM, 24 h
Experimental: as §1, §2, §3

Which “Activity on quiescent TG1 CSCs (hit compounds increasing ATP levels)” value (quiescent TG1 GSCs; primary screen, 50 μM, 24 h) does the source give for `CCCCCN(CCCCC)C(=O)C(CCC(=O)[O-])NC(=O)c1ccc(Cl)c(Cl)c1.[Na+]` (centres unmarked) [Lorglumide sodium salt] here?
Its value is “yes”.

With `COc1cc(NC(C)CCCN)c2ncccc2c1` (centres unmarked) [Primaquine diphosphate] as the compound, how does the “Activity on proliferating TG1 GSCs (hit compounds reducing ATP levels)” value (proliferating TG1 GSCs) read?
The value was “yes”.

And the “Activity on quiescent TG1 GSCs (hit compounds reducing ATP levels)” value (quiescent TG1 GSCs; primary screen, 50 μM, 24 h)?
Its value is “yes”.

Which “Activity on proliferating TG1 GSCs (hit compounds reducing ATP levels)” value (proliferating TG1 GSCs) does the source give for `CC/C(=C(/CC)c1ccc(O)cc1)c1ccc(O)cc1` [Diethylstilbestrol] here?
The value was “yes”.

What about the “Activity on quiescent TG1 GSCs (hit compounds reducing ATP levels)” value (quiescent TG1 GSCs; primary screen, 50 μM, 24 h) of the same compound?
The value was “yes”.

`CCCCCC[C@H]1C(=O)O[C@H](C)[C@H](NC(=O)c2cccc(NC=O)c2O)C(=O)O[C@@H](C)[C@@H]1OC(=O)CC(C)C` [Antimycin A] was tested. Which “Activity on quiescent TG1 GSCs (hit compounds reducing ATP levels)” value (quiescent TG1 GSCs; primary screen, 50 μM, 24 h) did it give?
The value was “yes”.

With `O=c1c2ccccc2[se]n1-c1ccccc1` [Ebselen] as the compound, how does the “Activity on quiescent TG1 GSCs (hit compounds reducing ATP levels)” value (quiescent TG1 GSCs; primary screen, 50 μM, 24 h) read?
The value was “yes”.

For `CN1C(=O)OC(C)(C)C1=O` [Trimethadione], which “Activity on quiescent TG1 CSCs (hit compounds increasing ATP levels)” value (quiescent TG1 GSCs; primary screen, 50 μM, 24 h) is on record?
The value was “yes”.

For `Br.C[N+]1([O-])[C@@H]2CC(OC(=O)[C@H](CO)c3ccccc3)C[C@H]1[C@@H]1O[C@@H]12` (some centres unmarked) [Scopolamin-N-oxide hydrobromide], which “Activity on quiescent TG1 CSCs (hit compounds increasing ATP levels)” value (quiescent TG1 GSCs; primary screen, 50 μM, 24 h) is on record?
Its value is “yes”.

Which “Activity on quiescent TG1 GSCs (hit compounds reducing ATP levels)” value (quiescent TG1 GSCs; primary screen, 50 μM, 24 h) does the source give for `CC[C@@]1([C@H]2O[C@H]([C@H]3O[C@@](O)(CO)[C@H](C)C[C@@H]3C)C[C@H]2C)CC[C@H]([C@@]2(C)CC[C@]3(C[C@H](O)[C@@H](C)[C@@H]([C@H](C)[C@H](OC)[C@@H](C)C(=O)[O-])O3)O2)O1.[Na+]` [Monensin sodium salt] here?
The value was “yes”.

With `Clc1ccc(COC(Cn2ccnc2)c2ccc(Cl)cc2Cl)cc1` (centres unmarked) [Econazole nitrate] as the compound, how does the “Activity on quiescent TG1 GSCs (hit compounds reducing ATP levels)” value (quiescent TG1 GSCs; primary screen, 50 μM, 24 h) read?
Its value is “yes”.

How did the “Activity on quiescent TG1 GSCs (hit compounds reducing ATP levels)” value (quiescent TG1 GSCs; primary screen, 50 μM, 24 h) turn out when `COC(=O)[C@H]1[C@H]2C[C@@H]3c4[nH]c5cc(OC)ccc5c4CCN3C[C@H]2C[C@@H](OC(=O)/C=C/c2cc(OC)c(OC)c(OC)c2)[C@@H]1OC` [Rescinnamin] was run?
The value was “yes”.

For `CO[C@H]1/C=C/O[C@@]2(C)Oc3c(C)c(O)c4c(O)c(c(/C=N/N5CCN(C)CC5)c(O)c4c3C2=O)NC(=O)/C(C)=C\C=C\[C@H](C)[C@H](O)[C@@H](C)[C@@H](O)[C@@H](C)[C@H](OC(C)=O)[C@@H]1C` [Rifampicin], which “Activity on quiescent TG1 CSCs (hit compounds increasing ATP levels)” value (quiescent TG1 GSCs; primary screen, 50 μM, 24 h) is on record?
Its value is “yes”.

With `OCCN1CCN(CCCN2c3ccccc3Sc3ccc(Cl)cc32)CC1` [Perphenazine] as the compound, how does the “Activity on proliferating TG1 GSCs (hit compounds reducing ATP levels)” value (proliferating TG1 GSCs) read?
Its value is “yes”.

With `COc1cc(/C=C/C(=O)N2CCC=CC2=O)cc(OC)c1OC` [Piperlongumine] as the compound, how does the “Activity on proliferating TG1 GSCs (hit compounds reducing ATP levels)” value (proliferating TG1 GSCs) read?
Its value is “yes”.

With `CC(C(=O)O)c1ccc(N2Cc3ccccc3C2=O)cc1` (centres unmarked) [Indoprofen] as the compound, how does the “Activity on proliferating TG1 GSCs (hit compounds reducing ATP levels)” value (proliferating TG1 GSCs) read?
The value was “yes”.

Which “Activity on proliferating TG1 CSCs (hit compounds increasing ATP levels)” value (proliferating TG1 GSCs) does the source give for `C[C@H](CCC(=O)O)[C@H]1CC[C@H]2[C@@H]3[C@@H](O)C[C@@H]4C[C@H](O)CC[C@]4(C)[C@H]3CC[C@]12C` [Urosiol] here?
The value was “yes”.

With `CN(C)[C@@H]1C(O)=C(C(N)=O)C(=O)[C@@]2(O)C(O)=C3C(=O)c4c(O)ccc(Cl)c4[C@@H](O)[C@H]3C[C@@H]12.Cl` [Dimeclocycline hydrochloride] as the compound, how does the “Activity on proliferating TG1 GSCs (hit compounds reducing ATP levels)” value (proliferating TG1 GSCs) read?
The value was “yes”.

With `Cc1c(Cl)cccc1Nc1ccccc1C(=O)O` [Tolfenamic acid] as the compound, how does the “Activity on quiescent TG1 GSCs (hit compounds reducing ATP levels)” value (quiescent TG1 GSCs; primary screen, 50 μM, 24 h) read?
Its value is “yes”.

How did the “Activity on quiescent TG1 GSCs (hit compounds reducing ATP levels)” value (quiescent TG1 GSCs; primary screen, 50 μM, 24 h) turn out when `CCCCCCC[N+](CC)(CC)CCCCc1ccc(Cl)cc1.Cc1ccc(S(=O)(=O)[O-])cc1` [Clofilium tosylate] was run?
Its value is “yes”.

`C[C@@H]1[C@H](O)[C@@H](C)/C=C/C=C/CC/C=C/C=C/C=C/C=C/C(O[C@H]2O[C@H](C)[C@@H](O)[C@H](N)[C@@H]2O)CC2O[C@](O)(CC(O)C(O)CCC(O)CC(O)CC(O)CC(=O)O[C@H]1C)CC(O)C2C(=O)O` (some centres unmarked) [Nystatine] was tested. Which “Activity on quiescent TG1 GSCs (hit compounds reducing ATP levels)” value (quiescent TG1 GSCs) did it give?
The value was “yes”.

Which “Activity on quiescent TG1 GSCs (hit compounds reducing ATP levels)” value (quiescent TG1 GSCs; primary screen, 50 μM, 24 h) does the source give for `C[C@]12CC[C@H](O)C[C@H]1CC[C@@H]1[C@@H]2CC[C@]2(C)[C@@H](C3=CC(=O)OC3)CC[C@]12O` [Digitoxigenin] here?
Its value is “yes”.

How did the “Activity on proliferating TG1 GSCs (hit compounds reducing ATP levels)” value (proliferating TG1 GSCs) turn out when `CNCCCC1c2ccccc2C=Cc2ccccc21` [Protriptyline hydrochloride] was run?
Its value is “yes”.

How did the “Activity on quiescent TG1 GSCs (hit compounds reducing ATP levels)” value (quiescent TG1 GSCs; primary screen, 50 μM, 24 h) turn out when `Cc1cc(/C=C/c2ccc3cc(N(C)C)ccc3[n+]2C)c(C)n1-c1ccccc1.Cc1cc(/C=C/c2ccc3cc(N(C)C)ccc3[n+]2C)c(C)n1-c1ccccc1.O=C([O-])c1cc2ccccc2c(Cc2c(O)c(C(=O)[O-])cc3ccccc23)c1O` [Pyvinium pamoate] was run?
Its value is “yes”.

With `O=C(O)c1ccccc1Nc1cccc(C(F)(F)F)c1` [Flufenamic acid] as the compound, how does the “Activity on quiescent TG1 GSCs (hit compounds reducing ATP levels)” value (quiescent TG1 GSCs; primary screen, 50 μM, 24 h) read?
The value was “yes”.

With `CC(COc1ccccc1)N(CCCl)Cc1ccccc1` (centres unmarked) [Phenoxybenzamine hydrochloride] as the compound, how does the “Activity on proliferating TG1 CSCs (hit compounds increasing ATP levels)” value (proliferating TG1 GSCs) read?
The value was “yes”.

With `c1ccc2c(c1)OCC(C1=NCCN1)O2` (centres unmarked) [Idazoxan hydrochloride] as the compound, how does the “Activity on quiescent TG1 CSCs (hit compounds increasing ATP levels)” value (quiescent TG1 GSCs; primary screen, 50 μM, 24 h) read?
Its value is “yes”.

How did the “Activity on quiescent TG1 GSCs (hit compounds reducing ATP levels)” value (quiescent TG1 GSCs; primary screen, 50 μM, 24 h) turn out when `CC(C)C(=O)Nc1ccc([N+](=O)[O-])c(C(F)(F)F)c1` [Flutamide] was run?
The value was “yes”.

For `CCCCN(CCCC)CCC(O)c1cc2c(Cl)cc(Cl)cc2c2cc(C(F)(F)F)ccc12` (centres unmarked) [Halofantrine hydrochloride], which “Activity on quiescent TG1 GSCs (hit compounds reducing ATP levels)” value (quiescent TG1 GSCs; primary screen, 50 μM, 24 h) is on record?
Its value is “yes”.

Source: PMC4536076, “Chemical Library Screening and Structure-Function Relationship Studies Identify Bisacodyl as a Potent and Selective Cytotoxic Agent Towards Quiescent Human Glioblastoma Tumor Stem-Like Cells” (PLoS ONE, 2015)
